Experimental data: patent US6566352B1, “1 α-hydroxy-2-methylene-19-nor-pregnacalciferol and its uses” (Wisconsin Alumni Research Foudation, priority 2002, dated 2003)
Entries after “also recorded” stand apart in the source; their conditions may differ.

Assays:
[1] = target: T1, full-length recombinant rat vitamin D receptor (Rattus norvegicus, UniProt P13053); assay: competition with [3H]-1,25(OH)2D3 for binding to vitamin D receptor; details: full-length recombinant rat vitamin D receptor (FIG. 2)
T1 construct: the full-length recombinant rat vitamin D receptor
T1 sequence (P13053 1-423): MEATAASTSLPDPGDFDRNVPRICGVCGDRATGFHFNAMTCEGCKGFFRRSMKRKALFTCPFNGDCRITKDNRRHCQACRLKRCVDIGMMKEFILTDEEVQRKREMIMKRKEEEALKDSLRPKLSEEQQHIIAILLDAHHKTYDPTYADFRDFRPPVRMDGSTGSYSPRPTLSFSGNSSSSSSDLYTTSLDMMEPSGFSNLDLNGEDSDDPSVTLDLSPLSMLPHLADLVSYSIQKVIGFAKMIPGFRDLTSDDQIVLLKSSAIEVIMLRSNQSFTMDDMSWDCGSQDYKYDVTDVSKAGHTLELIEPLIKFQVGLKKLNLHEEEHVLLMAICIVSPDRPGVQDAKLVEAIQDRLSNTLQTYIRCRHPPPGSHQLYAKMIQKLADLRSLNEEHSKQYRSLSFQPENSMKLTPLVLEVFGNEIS

[2] = tested on: calcium mobilization from bone; assay: bone calcium mobilization in vitamin D-deficient rats on low calcium diet; format: in vivo, rat; details: for bone calcium mobilization activity: in words, no dose named
Method: Calcium mobilization from bone and intestinal calcium absorption in vitamin D-deficient animals. Using vitamin D-deficient rats on a low calcium diet (0.02%), the activities of these compounds in intestine and bone were tested.

HL-60 cells = assay: HL-60 cell differentiation into monocytes; format: cell-based; details: for EC50: HL60 cells (FIG. 3)
Method: The differentiation of HL-60 promyelocytic into monocytes was determined as described by Ostrem et al (J. Biol. Chem. 262, 14164-14171, 1987).
VDR binding and HL60 cell differentiation.

[3] = serum calcium response in vitamin D-sufficient normal female rats on normal calcium diet; format: in vivo, rat; details: for serum calcium (hypercalcemia): 5000 pmol/day for 7 days, oral or intraperitoneal, normal female rats, 4 hours after last dose
Method: Serum calcium response in vitamin D-sufficient animals on a normal calcium diet. […] The doses were administered to two separate groups of animals by either the oral or intraperitoneal route, and serum calcium levels were assessed 4 hours after the last dose.

[4] = tested on: intestinal calcium transport; assay: intestinal calcium transport, everted gut sac method, vitamin D-deficient rats; format: in vivo, rat; details: for intestinal calcium transport activity: vitamin D-deficient rats, in words, no dose named
Method: Intestinal calcium transport was evaluated in the same groups of animals using the everted gut sac method (FIG. 5).

[5] = tested on: porcine intestinal vitamin D receptor; assay: binding to porcine intestinal vitamin D receptor; details: compared to standard 1,25-(OH)2D3 (FIG. 2)
From the text: The battery of in vitro and in vivo assays described in […] et al (J. Med.

| Structure (SMILES) | Ki [1] [nM] | mobilization of bone calcium ([2]; 260 pmol/day for 7 days) | EC50 (HL-60 cells) [nM] | serum calcium (hypercalcemia) [3] | intestinal calcium transport activity [4] | serum calcium levels (bone calcium mobilization) ([2]; low calcium diet (0.02%), all dosages) | intestinal calcium transport ([4]; 260 pmol/day) | mobilization of bone calcium ([2]; 1300 pmol/day (5-fold)) | bone calcium mobilization activity ([2]; low calcium diet (0.02%)) | intestinal calcium transport ([4]; 1300 pmol/day (5-fold higher)) | intestinal calcium transport ([4]; doses higher than 1300 pmol/day) | EC50 (HL-60 cells; Homo sapiens, HL-60) [nM] | potency on HL-60 differentiation compared to 1,25(OH)2D3 (HL-60 cells; in words, FIG. 3) | calcemic activity from serum calcium after chronic doses ([3]; rats, chronic doses (FIG. 6), in words) | binding to the porcine receptor as compared to 1,25-(OH)2D3 [5] |
| --- | --- | --- | --- | --- | --- | --- | --- | --- | --- | --- | --- | --- | --- | --- | --- |
| C[C@H](CCCC(C)(C)O)[C@H]1CC[C@H]2/C(=C/C=C3C[C@@H](O)C[C@H](O)C3)CCC[C@]12C [1,25(OH)2 19-nor-D3, 1α,25-dihydroxy-19-nor-vitamin D3, reference compound] | 0.2 | did not result in mobilization of bone calcium | 4 | produced frank hypercalcemia | devoid of intestinal calcium transport activity |  |  |  |  |  |  |  |  |  |  |
| C=C1/C(=C\C=C2/CCC[C@]3(C)[C@@H]([C@H](C)CCCC(C)(C)O)CC[C@@H]23)C[C@@H](O)C[C@@H]1O [1,25(OH)2D3, 1α,25-dihydroxyvitamin D3, reference compound] |  |  | 5 |  |  | increased serum calcium levels at all dosages | promotes a significant increase |  |  |  |  |  |  |  |  |
| C=C1C(O)CC(=CC=C2CCCC3(C)C2CCC3C(C)C)CC1O (stereo not drawn) [2-MP, 1α-hydroxy-2-methylene-19-nor-homopregnacalciferol] | 0.3 | did not result in mobilization of bone calcium | 6 |  |  |  | calcium transport activity equivalent to 1,25(OH)2D3 | without effect | little, if any, activity | calcium transport activity equivalent to 1,25(OH)2D3 | decreased this activity |  |  |  |  |
| C=C1[C@H](O)CC(=C/C=C2\CCC[C@]3(C)[C@@H]([C@@H](C)CC)CC[C@@H]23)C[C@H]1O [2-MbisP, (20S)-1α-hydroxy-2-methylene-19-nor-bishomopregnacalciferol] | 0.6 | did not result in mobilization of bone calcium | 7 |  |  |  | do not promote intestinal calcium transport | without effect | little, if any, activity | do not promote intestinal calcium transport |  |  |  |  |  |
| C=C1[C@H](O)CC(=C/C=C2\CCC[C@]3(C)C(CC)CCC23)C[C@H]1O (stereo partly drawn) [2-Mpregna, 1α-hydroxy-2-methylene-19-nor-pregnacalciferol] | 0.3 | did not result in mobilization of bone calcium |  | no increase in serum calcium | very little activity |  | do not promote intestinal calcium transport | without effect | very little bone calcium mobilization activity; also recorded: little, if any, activity | do not promote intestinal calcium transport |  | 17 | almost as potent as 1,25(OH)2D3 | very little calcemic activity | bound equally well |
